Results as given in US8557793B2, “Theanine derivative, preparation method thereof, and use thereof for alleviating acne” (Amorepacific Corporation, priority 2010, dated 2013).

Experiments:
S. Epidermidis = experiment: Selective anti-bacterial test, count of germs after shaking culture with sample; assay type: cell-based; settings: for S. Epidermidis (%) count of germs: count of germs in control group without sample defined as 100%, shaking culture at 32° C. for one day; for change in the count of S. Epidermidis (in words): summary of Table 1
Experimental: (§1) Each sample was added to an aqueous solution of 1% peptone and sterilized. 20 μl/ml of a test germ solution was injected into the sample-containing sterilized aqueous solution of peptone and then subjected to shaking culture at 32° C. for one day. The test germs selected were P. acnes known as present in the skin and harmful to the skin and S. Epidermidis known as relatively harmless to the skin. The solution after the shaking culture was diluted to 1/100 with normal diluting water. 0.1 ml of the diluted solution was placed on a Petri dish and then […]. To the diluted solution was poured TS agar cooled down to about 50° C. The Petri dish hardened with the TS agar was subjected to anaerobic culture at 35° C. for one day to measure the count of the germs. The P. acnes group was subjected to anaerobic culture at 35° C. for one day and then diluted to 1/100 with normal diluting water. 0.1 ml of the diluted solution was placed on a Petri dish, hardened with BHI agar, and subjected to anaerobic culture at 35° C. for 3 days to count the germs. As comparative groups, theanine and maltose were used for the testing. The count of germs in the control group without containing the sample was defined as 100%.

P. acnes = experiment: as above; assay type: cell-based, Propionibacterium acnes; settings: for P. acnes (%) count of germs: count of germs in control group without sample defined as 100%, shaking culture at 32° C. for one day; for change in the count of P. acnes (in words): summary of Table 1
Experimental: as §1

[1] = Primary skin irritation test (closed patch test); assay type: in vivo, human; settings: for Extent of Skin Irritation: average score on scale 0 (None) to 4 (Extreme), aqueous solution, closed patch on lower arm, 20 subjects, after one day; for safety to the skin (in words): summary of Table 3
Description: An aqueous solution of each theanine derivative of examples 1, 2 and 3 was applied on the lower part of the arm of 20 healthy male and female subjects according to the closed patch test method. The arm was covered with a plastic cap to block external stimuli. All numeral designations in Table 3 are averages of the irritations calculated according to the evaluation method of Table 2. [table]

Compound | S. Epidermidis (%) count of germs (S. Epidermidis) | P. acnes (%) count of germs (P. acnes) | change in the count of S. Epidermidis (in words) (S. Epidermidis) | Extent of Skin Irritation [1] | safety to the skin (in words) [1] | change in the count of P. acnes (in words) (P. acnes)
CCNC(=O)CC[C@H](N)C(=O)O [Theanine, theanine] | 98% | 50% |  |  |  | 
CCNC(=O)CC[C@H](NCC1(O)OC[C@@H](O)C(O[C@H]2O[C@H](CO)[C@@H](O)[C@H](O)[C@H]2O)[C@@H]1O)C(=O)OC (stereo partly shown) [Example 2, Maltulosyl Theanine Methyl Ester] | 93% | 27% | no significant change | 0.2 | safe to the skin | reduced count
OC[C@H]1O[C@H](O[C@H]2[C@H](O)[C@@H](O)C(O)O[C@@H]2CO)[C@H](O)[C@@H](O)[C@@H]1O (mixture of isomers) [Maltose, maltose, reference compound] | 89% | 110% |  |  |  | 
CCNC(=O)CC[C@H](NCC1(O)OC[C@@H](O)C(O[C@H]2O[C@H](CO)[C@@H](O)[C@H](O)[C@H]2O)[C@@H]1O)C(=O)O (stereo partly shown) [Example 1, Maltulosyl Theanine] | 83% | 9% | no significant change | 0.1 | safe to the skin | reduced count
CCN(CC)C(=O)CC[C@H](NCC1(O)OC[C@@H](O)C(O[C@H]2O[C@H](CO)[C@@H](O)[C@H](O)[C@H]2O)[C@@H]1O)C(=O)O (stereo partly shown) [Example 3, Maltulosyl N-Ethyl Theanine] | 86% | 15% | no significant change | 0.1 | safe to the skin | reduced count
